In patent US20190178889A1, “HIGH-THROUGHPUT SCREENING ASSAY” (BellBrook Labs, priority 2016, published 2019):
pEC50, pIC50, pKd: −log10 of the molar value. One block for each compound: values may come before it.

What was measured:
cGAMP mAb6 = test: competitive FP immunoassay, cGAMP mAb6 with cGAMP-Atto 633 tracer; type: binding, mouse; conditions: for binding to mAb6: ATP and GTP at more than 10^4-fold excess over half-maximal cGAMP concentration
Source text: Importantly, neither of these other cyclic dinucleotides are known to be endogenous in mammalian cells.

[1] = system: mouse antiserum (cGAMP antibody); test: FP binding of mouse antiserum to fluorescein-cGAMP tracer with competitor nucleotides; conditions: competitor 10 μM, tracer 4 nM
full length human cGAS [2] = target: T1, full length human cGAS (Homo sapiens, UniProt Q8N884); test: cGAS enzyme assay with cGAMP FP detection; type: biochemical; set-up: Assays using highly purified, full length human cGAS were performed; 6xHis; made in house; host or cells: E. coli BL21 DE3 (Rosetta DE3, Novagen), T7 expression vector
T1 sequence (Q8N884 whole entry): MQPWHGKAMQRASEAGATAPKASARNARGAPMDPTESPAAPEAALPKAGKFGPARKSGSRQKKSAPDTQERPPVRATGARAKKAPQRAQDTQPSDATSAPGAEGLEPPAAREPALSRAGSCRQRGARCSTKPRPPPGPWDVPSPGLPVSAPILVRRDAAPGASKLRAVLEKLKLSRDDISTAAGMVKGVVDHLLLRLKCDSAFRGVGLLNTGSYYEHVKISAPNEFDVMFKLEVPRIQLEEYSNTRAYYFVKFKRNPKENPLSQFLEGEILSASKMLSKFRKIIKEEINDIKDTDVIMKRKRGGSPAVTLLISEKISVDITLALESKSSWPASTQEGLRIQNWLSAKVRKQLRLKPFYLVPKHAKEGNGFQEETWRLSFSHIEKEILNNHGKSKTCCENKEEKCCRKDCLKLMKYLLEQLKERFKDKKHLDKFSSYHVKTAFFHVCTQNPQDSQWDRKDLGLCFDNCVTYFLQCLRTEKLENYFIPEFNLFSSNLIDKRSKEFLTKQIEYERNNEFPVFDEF
Procedure: FIG. 9 includes A) a plot showing detection of purified, full-length cGAS: cGAS enzyme titrations show a dose-dependent assay signal, as discussed in more detail in Example 2, below; N- and C-terminal His-tagged cGAS was prepared according to Example 4 (100 μM ATP and GTP, 62.5 nM 45 bp ISD DNA, 60 min reactions); […]; C) Confirmation that recombinant hcGAS was activated by ds DNA; half maximal responses of 3.5 and 5.9 nM for HSV 60 and ISD 45, respectively; D) ATP and GTP dependence: ATP and GTP were titrated separately and simultaneously; half maximal cGAS activity at 80 μM of both nucleotide; E) Dose response for cGAS inhibition by two flavonoids; F) a plot showing the results of an interference screen: the library of 1280 pharmacologically active compounds, available from Sigma (the “LOPAC library”) was used to test for compound interference with detection reagents as discussed in more detail in Example 2, below; wells contained all cGAS enzyme reaction components except the cGAS enzyme; positive controls contained 1 μM cGAMP, negative controls contained no cGAMP; […]; negative controls lacked dsDNA required for cGAS activation; H) an image of a coomassie blue stained SDS gel (top) and western blot (bottom) of purified 6×HIS-cGAS (Lane 1) and cGAS-6×His (Lane 2) prepared according to Example 4; Z=0.62, Z′=0.7.
cGAS is one of four oligoadenylate synthases, nucleic acid sensors that activate innate immunity via production of short, 2′-5′ oligoadenylate secondary messengers (35); […]. Binding of dsDNA and DNA:RNA hybrids to cGAS induces a conformational transition in an activation loop, not unlike the displacement of inhibitory domains by autophosphorylation in protein kinases (Zhang, et al., 2014, Cell Rep 6(3):421-30; Fabbro, et al., 2012, Methods Mol Biol 795:1-34). The full-length enzyme was used to insure that all of the potential allosteric sites were present and that the enzyme was able to sample its full conformational repertoire. Prior to running cGAS enzyme reactions, the effect of cGAS reaction components, including ATP and GTP Brij 35, NaCl, Brij 35, and dsDNA on the detection reagents was examined; no significant effects were observed. Assays using highly purified, full length human cGAS were performed. The full-length human cGAS was prepared according to Example 4, below. Additionally, third-party-provided cGAS (Sun, et al., 2013, Science 339(6121):786-91) was used for comparative purposes. Some enzyme assays were run in kinetic mode; i.e., the detection reagents were present during the enzyme reactions, and the plates were read periodically, and others were run in endpoint mode, using EDTA to quench the reaction.
. The enzyme data was graphed as the net change in polarization; […]. Conversion of polarization to cGAMP formation using a standard curve confirmed that product formation was linear with cGAS concentration (FIG. 9B); […]. There was essentially no quantitative activity data available for cGAS prior to the instant disclosure and the kcat values of approximately 1 min^−1 determined herein (at non-saturating ATP and GTP) were the first reported cGAS kinetic parameters. The generation of a good signal (i.e., ≥100 mP) with less than 10 nM cGAS is important for two reasons. It reduces the time and cost to prepare for a large screen by minimizing enzyme usage; for example, screening 1M (one million) compounds at 10 nM cGAS will require only 12 mg of enzyme. […]

scFvs against haptens = conditions: affinity-matured scFvs, yeast display; read-out: Kds of scFvs; cited from earlier work
full length human cGAS [3] = target: T1, full length human cGAS; test: cGAS enzyme assay with cGAMP TR-FRET detection
[4] = both nucleotides combined (titrated simultaneously), read-out: half maximal concentration of ATP and GTP for cGAS activity

binding to mAb6 (cGAMP mAb6; FP competition curves, FIG. 8E): no detectable binding
effect of excess competitor on antiserum/tracer binding curve [1]: no effect
pEC50 (full length human cGAS [2]; [4]): 4.10
Compound: Nc1ncnc2c1ncn2[C@@H]1O[C@H](COP(=O)(O)OP(=O)(O)OP(=O)(O)O)[C@@H](O)[C@H]1O [ATP]

binding to mAb6 (cGAMP mAb6; FP competition curves, FIG. 8E): no detectable binding
effect of excess competitor on antiserum/tracer binding curve [1]: no effect
pEC50 (full length human cGAS [2]; [4]): 4.10
Compound: Nc1nc2c(ncn2[C@@H]2O[C@H](COP(=O)(O)OP(=O)(O)OP(=O)(O)O)[C@@H](O)[C@H]2O)c(=O)[nH]1 [GTP]

binding to mAb6 (cGAMP mAb6; FP competition curves, FIG. 8E): lack of binding
Compound: Nc1nc2c(ncn2[C@@H]2O[C@@H]3COP(=O)(O)O[C@H]3[C@H]2O)c(=O)[nH]1 [cGMP]

pEC50 (full length human cGAS [3]; read-out: EC50, cGAS enzyme titration, TR-FRET assay, FIG. 10E): ~8.30
pEC50 (full length human cGAS [2]; FP assay, depending on the preparation, 100 μM ATP and GTP, 62.5 nM 45 bp ISD DNA, 60 min, read-out: half-maximal change (EC50) of polarization, cGAS enzyme titration): 7.92 to 8.22
Compound: cGAS: highly purified, full length human cyclic GMP-AMP synthase
Kcat (full length human cGAS [2]; cGAMP FP assay, non-saturating ATP and GTP): approximately 1 min^−1

Second part, the compound before the results:

Compound: Nc1nc2c(ncn2[C@@H]2O[C@@H]3COP(=O)(O)O[C@H]4[C@@H](O)[C@H](n5cnc6c(N)ncnc65)O[C@@H]4COP(=O)(O)O[C@@H]2[C@@H]3O)c(=O)[nH]1 [2′,3′ cGAMP, G(2′-5′)pA(3′-5′)p]
polarization shift (cGAMP mAb6; at 500 nM cGAMP, 0.5-0.6 μg/ml mAb6): approximately 130 mP
effect of excess competitor on antiserum/tracer binding curve [1]: right-shifted by approximately two orders of magnitude

Compound: Nc1nc2c(ncn2C2OC3COP(=O)(O)OC4C(O)C(COP(=O)(O)OC3C2O)OC4n2cnc3c(=O)[nH]c(N)nc32)c(=O)[nH]1 (stereo not drawn) [2′,3′ cyclic di-GMP]
pIC50 (cGAMP mAb6; FP competition curves, FIG. 8E, read-out: 1050 values (competition, displacement of tracer from mAb6)): 6.60

Compound: Nc1nc2c(ncn2[C@@H]2O[C@@H]3COP(=O)(O)O[C@H]4[C@@H](O)[C@H](n5cnc6c(N)ncnc65)O[C@@H]4COP(=O)(O)O[C@H]3[C@H]2O)c(=O)[nH]1 [3′,3′ cGAMP]
binding to mAb6 (cGAMP mAb6; FP competition curves, FIG. 8E): did not bind

Compound: Nc1ncnc2c1ncn2[C@@H]1O[C@H](COP(=O)(O)OP(=O)(O)O)[C@@H](O)[C@H]1O [ADP]
binding to mAb6 (cGAMP mAb6; FP competition curves, FIG. 8E): lack of binding

Compound: O=C(O)CN1CCN(CC(=O)O)CCN(CC(=O)O)CCN(CC(=O)O)CC1 [DOTA]
pKd (scFvs against haptens): 11.09

Compound: cGAS-His: full-length human cGAS having a 6×His at the C-terminus
Kcat (full length human cGAS [3]; determined by TR-FRET): 1.58
Kcat (full length human cGAS [2]; determined by FP): 1.21
